# Source: patent publication US7767204B2, “Method and composition for protecting neuronal tissue from damage induced by elevated glutamate levels” (Yeda Research And Development Co. Ltd., priority 2002, dated 2010)
# T1: glutamate, 2-ketoglutarate (Escherichia coli, UniProt P00509)
# T1 sequence (P00509 whole entry, looked up): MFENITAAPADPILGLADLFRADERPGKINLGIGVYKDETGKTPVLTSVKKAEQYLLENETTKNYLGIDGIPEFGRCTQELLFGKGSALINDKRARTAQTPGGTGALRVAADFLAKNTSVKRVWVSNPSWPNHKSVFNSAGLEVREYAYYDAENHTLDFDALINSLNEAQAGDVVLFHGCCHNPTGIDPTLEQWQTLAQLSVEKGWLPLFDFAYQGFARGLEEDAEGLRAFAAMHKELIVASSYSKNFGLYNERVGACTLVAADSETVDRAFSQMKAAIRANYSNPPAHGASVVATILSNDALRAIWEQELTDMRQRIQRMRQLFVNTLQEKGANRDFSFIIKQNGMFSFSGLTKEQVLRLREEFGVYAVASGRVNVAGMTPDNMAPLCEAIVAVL
# B1: E. coli GOT: E. coli glutamate oxaloacetate transaminase, GenBank Accession No. D90731.1 (protein, UniProt P00509 1-396, looked up)
# Aspartate aminotransferase: MFENITAAPADPILGLADLFRADERPGKINLGIGVYKDETGKTPVLTSVKKAEQYLLENETTKNYLGIDGIPEFGRCTQELLFGKGSALINDKRARTAQTPGGTGALRVAADFLAKNTSVKRVWVSNPSWPNHKSVFNSAGLEVREYAYYDAENHTLDFDALINSLNEAQAGDVVLFHGCCHNPTGIDPTLEQWQTLAQLSVEKGWLPLFDFAYQGFARGLEEDAEGLRAFAAMHKELIVASSYSKNFGLYNERVGACTLVAADSETVDRAFSQMKAAIRANYSNPPAHGASVVATILSNDALRAIWEQELTDMRQRIQRMRQLFVNTLQEKGANRDFSFIIKQNGMFSFSGLTKEQVLRLREEFGVYAVASGRVNVAGMTPDNMAPLCEAIVAVL
# B2: GPT: glutamate pyruvate transaminase enzyme added at 2.5 u/ml (protein, UniProt P24298 2-496, looked up)
# Alanine aminotransferase 1: ASSTGDRSQAVRHGLRAKVLTLDGMNPRVRRVEYAVRGPIVQRALELEQELRQGVKKPFTEVIRANIGDAQAMGQRPITFLRQVLALCVNPDLLSSPNFPDDAKKRAERILQACGGHSLGAYSVSSGIQLIREDVARYIERRDGGIPADPNNVFLSTGASDAIVTVLKLLVAGEGHTRTGVLIPIPQYPLYSATLAELGAVQVDYYLDEERAWALDVAELHRALGQARDHCRPRALCVINPGNPTGQVQTRECIEAVIRFAFEERLFLLADEVYQDNVYAAGSQFHSFKKVLMEMGPPYAGQQELASFHSTSKGYMGECGFRGGYVEVVNMDAAVQQQMLKLMSVRLCPPVPGQALLDLVVSPPAPTDPSFAQFQAEKQAVLAELAAKAKLTEQVFNEAPGISCNPVQGAMYSFPRVQLPPRAVERAQELGLAPDMFFCLRLLEETGICVVPGSGFGQREGTYHFRMTILPPLEKLRLLLEKLSRFHAKFTLEYS
# How the values were obtained:
# [1] = system: glutamate in blood cells and plasma (GPT, GOT, 2-ketoglutarate dehydrogenase, GDH); experiment: In-vitro glutamate levels and conversion in blood cell fraction and plasma; assay type: biochemical, rat; conditions: for blood cell (cellular) glutamate levels / plasma glutamate levels: incubation of blood with GDH co-factors in vitro
# Description: (§1) Induction of rat blood glutamate metabolism and glutamate concentration determination—Fresh rat blood samples incubated at 37° C. were supplemented every 15 minutes or as noted with oxaloacetate and/or pyruvate (final concentration of 1 mM at pH 7.4).
# (§2) At indicated time intervals, 150 μl aliquots were removed and centrifuged at 1,300×g for 7 minutes. Plasma volume (i.e., supernatant) was measured and was combined with identical volume of perchloric acid (PCA) to precipitate protein content. Precipitation was allowed to proceed for 10 minutes on ice and thereafter samples were centrifuged. Cell pellet (i.e., erythrocytes, lymphocytes and platelets) was lysed by osmotic shock following resuspension in double distilled water up to a final volume of 150 μl. A second step of protein precipitation was then performed by adding 150 μl of PCA [[…]]. Plasma and cell PCA-precipitated fractions were centrifuged at 16,000×g for 10 minutes and pellets were discarded.
# Supernatant glutamate concentration was determined according to the fluorometric procedure of Graham and Aprison [(1996) Anal. Biochem. 15(3):487-97]. In brief: 20 μl aliquot of PCA precipitated fraction was added to 480 μl HG buffer containing 15 u of glutamate dehydrogenase in 0.2 mM NAD, 0.3 M glycine, 2.4% hydrazine hydrate adjusted to pH 6.8 with H2SO4 [1 N] and incubated at room temperature for 30-45 minutes. Fluorescence was measured at 460 nm following excitation at 350 nm. All measurements were performed alongside a glutamate standard curve at a glutamate concentration range of 0-6 μM. All glutamate measurements were performed in duplicates.
# Results—Glutamate levels were therefore determined individually in blood cell fractions (closed symbols) and in plasma (open symbols), following repeated additions (arrows) of 1 mM pyruvate (squares), 1 mM oxaloacetate (triangles) or of a mixture of 1 mM pyruvate and 1 mM oxaloacetate (diamonds) (FIG. 2A). Glutamate determination was conducted as described in Example 1.
# [2] = system: rat blood plasma glutamate (GOT, GPT); experiment: Glutamate conversion in rat blood plasma by pyruvate and oxaloacetate analogues; assay type: biochemical; conditions: for % of remaining Glutamate: rat blood plasma, 1 mM of each co-substrate
# Description: A number of glutamate modifying enzymes were tested for their ability to enhance glutamate conversion in rat blood plasma. Table 1 below summarizes the results obtained with 1 mM of each co-substrate.
# [3] = Blood concentrations of pyruvate and oxaloacetate during intravenous infusion; assay type: in vivo, rat; conditions: intravenous 50 μMoles/min each for 30 min
# Description: Glutamate analyses of in-vivo treated blood samples were carried out according to the fluorometric procedure of Graham and Aprison [(1996) Anal. Biochem. 15(3):487-97]. Pyruvate concentration determination—Blood Pyruvate concentration was measured using the Sigma Diagnostics Pyruvate reagents according to manufacturer's instructions. In brief: the procedure utilizes lactate dehydrogenase which in the presence of excess NADH catalyzes almost complete conversion of pyruvate into lactate with a concomitant production of NAD. The reduction of absorbance at 340 nm due to the oxidation of NADH into NAD is the measure of the amount of pyruvate originally present.
# (§3) Oxaloacetate concentration determination—Blood oxaloacetate concentration was measured using the same procedure as for pyruvate but using malate dehydrogenase which catalyses the conversion of oxaloacetate into malate along with the oxidation of NADH into NAD.
# Results—The effect on glutamate levels via pyruvate and oxaloacetate administration through an intravenous catheter at a rate of 50 μMoles/minute for a duration of 30 minutes was determined. Blood concentrations of glutamate, pyruvate and oxaloacetate were monitored in parallel. […] However, as soon as the administration of pyruvate and oxaloacetate was stopped, their blood concentration decreased and the glutamate level increased concomitantly.
# [4] = Glutamate life time in blood after bolus intravenous injection of labelled glutamate; assay type: in vivo, rat
# Description: Results—Glutamate normalization may be accomplished by estimating the rate of disappearance of [^14C] glutamate from the blood, by methodology detailed in the preceding example. Administration of a bolus intravenous injections of 11 μCi radio-labeled glutamate in the absence or presence of non-radioactive glutamate was conducted and the presence of radioactivity in blood was monitored over time (FIG. 19).
# [5] = system: brain to blood glutamate efflux; experiment: Brain-to-blood [3H]Glu efflux after intracerebroventricular injection; conditions: first 10 minutes after injection in lateral ventricle, n=8
# Description: Catheterization of the tail vein (for drug injections) and of the femoral vein (for blood aliquot withdrawals) was performed using PE10 polyethylene tubing linked to PE50 polyethylene tubing. […] A 27G steel cannula was implanted in the right lateral ventricle using the following stereotactic coordinates: 0.8 mm posterior to bregma; lateral 1.4 mm; depth: 4 mm from skull or 3.5 mm from dura. A [^3H] glutamate solution in phosphate buffered saline (PBS) was injected into the lateral ventricle through the implanted cannula using a Hamilton syringe (25 μl) connected to PE20 tube filled with solution. A total volume of 11 μl was injected within approximately 2 minutes.
# For radioactivity determination, 50 μl blood samples were diluted in 500 μl H2O and added to 16 ml of scintillation fluid. Measured cpms were corrected for quenching as determined by comparing the measured cpms of a set volume of [^3H] glutamate added to water or to diluted blood. Body temperature was maintained with a lamp and rectal temperature was monitored. Rat pulse rate was monitored using a Periflux system 500 and a laser Doppler probe placed onto the skull.
# Intravenous injections of pyruvate and oxaloacetate diluted in phosphate buffered saline (PBS) were carried out at a rate of 0.05 ml/minute for 30 minutes with a Pharmacia pump P-1.
# [6] = Conversion of diethyloxaloacetate into oxaloacetate in rat blood and tissue homogenates; assay type: in vitro ADME; conditions: 10 mM diethyloxaloacetate
# Description: as §3
# The use of an oxaloacetate prodrug, which following in vivo administration, is converted to oxaloacetate, may obviate this problem. Thus the commercially available oxaloacetate diethylester (FIG. 27B) was considered in this context. Conversion of oxaloacetate diethylester into oxaloacetate following incubation with tissue homogenates derived from rat liver, colon, ileum, jejunum and duodenum was investigated.
# [7] = system: blood and plasma glutamate (GOT); experiment: Effect of diethyloxaloacetate on glutamate in rat blood and plasma in vitro; assay type: biochemical; conditions: 10 mM
# Description: Thereafter, the effect of diethyloxaloacetate on Glutamate levels was assessed. Glutamate levels were determined in rat blood samples upon incubation in the absence or presence of 10 mM diethyloxaloacetate. […] FIG. 31 represents the amount of plasma glutamate converted probably into α-ketoglutarate following the activation of GOT as a function of time by the presence of 10 mM diethyloxaloacetate.
# [8] = target: T1, glutamate, 2-ketoglutarate; conditions: cited from earlier work
# [9] = system: blood glutamate (blood resident GPT and GOT); experiment: In-vitro scavenging of glutamate in whole rat blood by activation of resident enzymes; assay type: biochemical; conditions: 37° C., 1 mM co-substrate and/or 2.5 u/ml GPT
# Description: as §1, §2
# Supernatant glutamate concentration was determined according to the fluorometric procedure of Graham and Aprison [(1996) Anal. Biochem. 15(3):487-97]. […] Fluorescence was measured at 460 nm following excitation at 350 nm. […]
# [10] = normal blood glutamate concentration of 209 μM
# [11] = rat blood in vitro, 24 hours, 37° C.
molecule,measurement,setting,value
Nc1ncnc2c1ncn2[C@@H]1O[C@H](COP(=O)(O)OP(=O)(O)O)[C@@H](O)[C@H]1O [ADP],blood cell (cellular) glutamate levels,[1],did not significantly alter glutamate levels
same,plasma glutamate levels,[1],increased plasma glutamate levels
O=CC(=O)O [Glyoxalate],% of remaining Glutamate,[2],74%
CC(C)C[C@H](N)C(=O)O [Leucine],blood cell (cellular) glutamate levels,[1],did not significantly alter glutamate levels
same,plasma glutamate levels,[1],increased plasma glutamate levels
NC(=O)c1ccc[n+]([C@@H]2O[C@H](COP(=O)([O-])OP(=O)(O)OC[C@H]3O[C@@H](n4cnc5c(N)ncnc54)[C@H](O)[C@@H]3O)[C@@H](O)[C@H]2O)c1 [NAD],blood cell (cellular) glutamate levels,[1],decrease in blood cell glutamate levels
same,plasma glutamate levels,[1],increase in plasma glutamate levels
O=C(O)CC(=O)C(=O)O [Oxaloacetate],blood concentration built up,[3],450 µM
CC(=O)C(=O)O [Pyruvate],blood concentration built up,[3],450 µM
O=CCCC(=O)O [Succinic semialdehyde],% of remaining Glutamate,[2],78%
"N[C@@H](CCC(=O)O)C(=O)O [[^3H] glutamate, glutamate]",glutamate eliminated per minute,[4]; blood glutamate 3.4 mM,69 nmoles glutamate/ml blood
same,elimination half-life in blood,[4]; blood glutamate 3.4 mM after intraperitoneal 2 mMoles of glutamate,24.6 min
same,elimination rate constant,[4]; normal blood glutamate concentration,0.035 min⁻¹
same,elimination half-life in blood,[4]; [10],19.3 min
same,glutamate eliminated per minute,[4]; [10],5.4 nmoles of glutamate/ml blood
same,"rate of appearance of radioactivity in blood, of the amount input in the brain per minute",[5],0.8%±0.1
CCOC(=O)CC(=O)C(=O)OCC [diethyloxaloacetate],increase in basal oxaloacetate levels,"[6]; liver and sections of rat gut mucosa, within 15 minutes",400%
same,increase of blood oxaloacetate,[6]; [11],240%
same,glutamate blood levels,[7]; [11],did not affect glutamate blood levels
same,plasma glutamate,"[7]; rat blood plasma in vitro, following 9 hours incubation",significant increase in plasma glutamate
Cc1ncc(COP(=O)(O)O)c(C=O)c1O [pyridoxal phosphate],enhancement of pyruvate and oxaloacetate-mediated decrease in cellular or plasma glutamate,[1]; 15 μM pyridoxal phosphate,No significant effects
CCC(=O)C(=O)O [α-Ketobutyrate],decrease in plasma glutamate levels,"[2]; 0.5 mM, rat plasma",no effect
same,glutamate degradation as compared to basal glutamate levels,"[2]; 2 mM, rat plasma",40%
same,conversion of glutamate in the presence of oxaloacetate,[2]; in the presence of 0.25 mM oxaloacetate,enhanced conversion of glutamate
same,% of remaining Glutamate,[2],97%
O=C(O)C(=O)CO [β-Hydroxypyruvate],% of remaining Glutamate,[2],74%
O=C(O)C(=O)Cc1ccccc1 [β-Phenylpyruvate],% of remaining Glutamate,[2],76%
α-Isocaproate,% of remaining Glutamate,[2],83%
B1,affinity for 2-ketoglutarate,[8],about 0.2 mM
same,affinity for glutamate,[8],about 8 mM
B2,blood glutamate levels,[9],significant increase in blood glutamate
